# Test results from US20250154109A1, “SODIUM CHANNEL BLOCKING COMPOUNDS, DERIVATIVES THEREOF, AND METHODS OF THEIR USE” (LATIGO BIOTHERAPEUTICS, INC, priority 2022, published 2025).
# Like-named read-outs stand apart in the source and are kept apart here.
# Target: human Nav1.8 (Homo sapiens, UniProt Q9Y5Y9)
# Assay: SyncroPatch384PE assay (automated patch clamp)
# Type: cell-based
# Conditions: human Nav1.8/b3 CHO cells
# [1] = inactivated state block (P2 measurement), read-out: P2 IC50
# [2] = resting state block (P1 measurement), read-out: P1 IC50
# human Nav1.8, sequence (Q9Y5Y9 whole entry): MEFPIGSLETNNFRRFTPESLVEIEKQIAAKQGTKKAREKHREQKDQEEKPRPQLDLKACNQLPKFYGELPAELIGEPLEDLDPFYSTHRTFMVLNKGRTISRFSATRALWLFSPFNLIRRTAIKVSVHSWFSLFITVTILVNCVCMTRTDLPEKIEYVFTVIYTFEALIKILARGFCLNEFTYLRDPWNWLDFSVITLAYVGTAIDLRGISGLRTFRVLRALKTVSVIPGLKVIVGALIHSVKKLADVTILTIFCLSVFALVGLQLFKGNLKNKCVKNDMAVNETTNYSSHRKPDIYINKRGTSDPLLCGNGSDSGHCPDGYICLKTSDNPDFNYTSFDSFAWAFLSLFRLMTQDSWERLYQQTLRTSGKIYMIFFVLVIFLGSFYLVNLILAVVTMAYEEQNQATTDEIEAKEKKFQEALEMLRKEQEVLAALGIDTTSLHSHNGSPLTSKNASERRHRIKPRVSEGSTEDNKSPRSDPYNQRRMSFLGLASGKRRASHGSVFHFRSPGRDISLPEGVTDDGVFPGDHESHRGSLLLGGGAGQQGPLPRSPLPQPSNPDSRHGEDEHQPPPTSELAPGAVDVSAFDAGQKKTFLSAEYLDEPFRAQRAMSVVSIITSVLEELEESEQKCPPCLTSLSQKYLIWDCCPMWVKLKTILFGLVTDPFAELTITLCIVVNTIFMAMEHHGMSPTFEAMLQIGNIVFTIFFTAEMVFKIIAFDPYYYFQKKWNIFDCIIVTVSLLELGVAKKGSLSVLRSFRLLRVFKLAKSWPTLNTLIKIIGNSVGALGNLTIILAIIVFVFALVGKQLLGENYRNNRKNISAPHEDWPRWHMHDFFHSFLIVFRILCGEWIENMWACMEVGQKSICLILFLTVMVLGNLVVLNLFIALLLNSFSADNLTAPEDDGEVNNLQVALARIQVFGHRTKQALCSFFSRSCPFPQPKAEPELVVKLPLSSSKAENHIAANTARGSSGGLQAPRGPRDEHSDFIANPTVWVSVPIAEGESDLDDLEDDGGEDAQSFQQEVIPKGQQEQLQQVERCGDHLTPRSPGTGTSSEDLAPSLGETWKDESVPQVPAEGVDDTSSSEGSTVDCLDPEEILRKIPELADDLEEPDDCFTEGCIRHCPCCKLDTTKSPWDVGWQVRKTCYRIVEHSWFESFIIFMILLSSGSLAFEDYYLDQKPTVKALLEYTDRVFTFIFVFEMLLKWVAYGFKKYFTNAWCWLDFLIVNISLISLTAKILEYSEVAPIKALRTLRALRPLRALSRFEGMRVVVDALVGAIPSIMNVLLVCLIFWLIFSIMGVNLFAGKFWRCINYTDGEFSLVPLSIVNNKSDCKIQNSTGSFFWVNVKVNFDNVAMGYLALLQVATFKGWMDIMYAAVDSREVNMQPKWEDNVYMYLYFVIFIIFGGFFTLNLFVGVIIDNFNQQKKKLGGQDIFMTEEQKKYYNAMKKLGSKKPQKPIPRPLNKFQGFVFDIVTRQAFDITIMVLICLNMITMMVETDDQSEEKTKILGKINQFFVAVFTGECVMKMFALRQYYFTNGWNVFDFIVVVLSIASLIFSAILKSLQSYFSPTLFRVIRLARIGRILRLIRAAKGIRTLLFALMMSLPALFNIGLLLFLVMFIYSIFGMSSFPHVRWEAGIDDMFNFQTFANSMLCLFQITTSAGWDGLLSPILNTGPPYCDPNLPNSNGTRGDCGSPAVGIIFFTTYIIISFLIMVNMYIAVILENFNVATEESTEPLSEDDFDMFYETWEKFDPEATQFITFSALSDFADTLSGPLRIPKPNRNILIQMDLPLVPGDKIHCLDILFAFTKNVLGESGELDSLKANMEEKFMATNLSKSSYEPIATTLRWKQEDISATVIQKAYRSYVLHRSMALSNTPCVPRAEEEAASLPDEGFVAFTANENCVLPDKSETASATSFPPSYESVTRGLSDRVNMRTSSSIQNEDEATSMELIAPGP
Compound,IC50 [1],IC50 [2]
"CNCC(=O)N=[S@](C)(=O)c1cccc(NC(=O)c2c(N3CCCC(F)(F)CC3)ccc(-c3cnn(C)c3)c2C)c1 [Example 175, (R)-6-(4,4-difluoroazepan-1-yl)-2-methyl-3-(1-methyl-1H-pyrazol-4-yl)-N-(3-(S-methyl-N-(methylglycyl)sulfonimidoyl)phenyl)benzamide]",5 to 50 nM,5 to 50 nM
"Cc1c(C#N)cnc(N2CCCC(F)(F)CC2)c1C(=O)Nc1cccc(S(C)(=N)=O)c1 (stereo not shown) [Example 97, 5-cyano-2-(4,4-difluoroazepan-1-yl)-4-methyl-N-(3-(S-methylsulfonimidoyl)phenyl)nicotinamide]",5 to 50 nM,5 to 50 nM
"Cc1c(Cl)c(C(F)(F)F)nc(N2CCCC(F)(F)CC2)c1C(=O)Nc1cccc([S@](C)(=N)=O)c1 [Example 109, (R)-5-chloro-2-(4,4-difluoroazepan-1-yl)-4-methyl-N-(3-(S-methylsulfonimidoyl)phenyl)-6-(trifluoromethyl)nicotinamide]",≤ 5 nM,≤ 5 nM
"CS(=N)(=O)c1cccc(NC(=O)c2nnc(C(F)(F)F)cc2N2CCCCCC2)c1 (stereo not shown) [Example 9, 4-(azepan-1-yl)-N-(3-(S-methylsulfonimidoyl)phenyl)-6-(trifluoromethyl)pyridazine-3-carboxamide]",> 200 nM,> 200 nM
"Cc1nn(C)cc1-c1cnc(N2CCCC(F)(F)CC2)c(C(=O)Nc2cccc([S@](C)(=N)=O)c2)c1C [Example 146, (R)-2-(4,4-difluoroazepan-1-yl)-5-(1,3-dimethyl-1H-pyrazol-4-yl)-4-methyl-N-(3-(S-methylsulfonimidoyl)phenyl)nicotinamide]",> 200 nM,> 200 nM
"Cc1c(-c2ccc(F)cc2)cnc(N2CCCC(F)(F)CC2)c1C(=O)Nc1cccc(S(C)(=N)=O)c1 (stereo not shown) [Example 88, 2-(4,4-difluoroazepan-1-yl)-5-(4-fluorophenyl)-4-methyl-N-(3-(S-methylsulfonimidoyl)phenyl)nicotinamide]",≤ 5 nM,≤ 5 nM
"Cc1c(-c2ccc(F)c(F)c2)cnc(N2CCCC(F)(F)CC2)c1C(=O)Nc1cccc([S@](C)(=N)=O)c1 [Example 59, (R)-2-(4,4-difluoroazepan-1-yl)-5-(3,4-difluorophenyl)-4-methyl-N-(3-(S-methylsulfonimidoyl)phenyl)nicotinamide]",≤ 5 nM,≤ 5 nM
"CNCC(=O)N=[S@](C)(=O)c1cccc(NC(=O)c2c(N3CCCC(F)(F)CC3)ncc(C(F)(F)F)c2C)c1 [Example 194, (R)-2-(4,4-difluoroazepan-1-yl)-4-methyl-N-(3-(S-methyl-N-(methylglycyl)sulfonimidoyl)phenyl)-5-(trifluoromethyl)nicotinamide]",≤ 5 nM,≤ 5 nM
"C[S@+]([O-])c1cc(NC(=O)c2cc(Cl)c(C(F)(F)F)cc2N2CCCC(F)(F)CC2)ccc1F [Example 205, (S)-5-chloro-2-(4,4-difluoroazepan-1-yl)-N-(4-fluoro-3-(methylsulfinyl)phenyl)-4-(trifluoromethyl)benzamide]",≤ 5 nM,≤ 5 nM
"CNCCN=[S@](C)(=O)c1cccc(NC(=O)c2c(N3CCCC(F)(F)CC3)ncc(-c3cnn(C)c3)c2C)c1 [Example 203, (R)-2-(4,4-difluoroazepan-1-yl)-4-methyl-5-(1-methyl-1H-pyrazol-4-yl)-N-(3-(S-methyl-N-(2-(methylamino)ethyl)sulfonimidoyl)phenyl)nicotinamide]",5 to 50 nM,5 to 50 nM
"Cc1nc(N2CCCC(F)(F)CC2)c(C(=O)Nc2cccc([S@](C)(=N)=O)c2)cc1Cl [Example 16, (R)-5-chloro-2-(4,4-difluoroazepan-1-yl)-6-methyl-N-(3-(S-methylsulfonimidoyl)phenyl)nicotinamide]",≤ 5 nM,≤ 5 nM
"Cc1c(-c2ccccn2)cnc(N2CCCC(F)(F)CC2)c1C(=O)Nc1cccc(S(C)(=N)=O)c1 (stereo not shown) [Example 99, 6 C(4,4-difluoroazepan-1-yl)-4methyl-N-(3-(S-methylsulfonimidoyl)phenyl)-[2,3bipyridine]-5carboxamide]",100 to 200 nM,100 to 200 nM
"Cc1nc(N2CCOCC2)nc(N2CCCC(F)(F)CC2)c1C(=O)Nc1cccc([S@](C)(=N)=O)c1 [Example 155, (R)-4-(4,4-difluoroazepan-1-yl)-6-methyl-N-(3-(S-methylsulfonimidoyl)phenyl)-2-morpholinopyrimidine-5-carboxamide]",> 200 nM,> 200 nM
"C[S@@](=N)(=O)c1cc(NC(=O)c2cc(Cl)c(C(F)(F)F)cc2N2CCCC(F)(F)CC2)ccn1 [Example 199, (R)-5-chloro-2-(4,4-difluoroazepan-1-yl)-N-(2-(S-methylsulfonimidoyl)pyridin-4-yl)-4-(trifluoromethyl)benzamide]",≤ 5 nM,≤ 5 nM
"Cc1nc(N2CCCC(F)(F)CC2)c(C(=O)Nc2cccc(S(C)(=N)=O)c2)cc1Cl (stereo not shown) [Example 15, 5-chloro-2-(4,4-difluoroazepan-1-yl)-6-methyl-N-(3-(S-methylsulfonimidoyl)phenyl)nicotinamide]",≤ 5 nM,≤ 5 nM
"Cc1cc(C#N)nc(N2CCCC(F)(F)CC2)c1C(=O)Nc1cccc([S@](C)(=N)=O)c1 [Example 148, (R)-6-cyano-2-(4,4-difluoroazepan-1-yl)-4-methyl-N-(3-(S-methylsulfonimidoyl)phenyl)nicotinamide]",5 to 50 nM,5 to 50 nM
"Cc1c(C#N)c(C(F)(F)F)nc(N2CCCC(F)(F)CC2)c1C(=O)Nc1cccc([S@@](C)(=O)=NC(=O)C2(N)CC2)c1 [Example 66, (R)-N-(3-(N-(1-aminocyclopropane-1-carbonyl)-S-methylsulfonimidoyl)phenyl)-5-cyano-2-(4,4-difluoroazepan-1-yl)-4-methyl-6-(trifluoromethyl)nicotinamide]",≤ 5 nM,≤ 5 nM
"CS(=N)(=O)c1cccc(NC(=O)c2cc(C(F)(F)F)nnc2N2CCCCCC2)c1 (stereo not shown) [Example 1, 3-(Azepan-1-yl)-N-(3-(S-methylsulfonimidoyl)phenyl)-6-(trifluoromethyl)pyridazine-4-carboxamide]",> 200 nM,> 200 nM
"Cc1c(-c2cnn(C)c2)cnc(N2CCCC(F)(F)CC2)c1C(=O)NC12CC(C(N)=O)(C1)C2 [Example 132, N-(3-carbamoylbicyclo[1.1.1]pentan-1-yl)-2-(4,4-difluoroazepan-1-yl)-4-methyl-5-(1-methyl-1H-pyrazol-4-yl)nicotinamide]",> 200 nM,> 200 nM
"Cc1c(C#CCN(C)C)cnc(N2CCCC(F)(F)CC2)c1C(=O)Nc1cccc([S@](C)(=N)=O)c1 [Example 124, (R)-2-(4,4-difluoroazepan-1-yl)-5-(3-(dimethylamino)prop-1-yn-1-yl)-4-methyl-N-(3-(S-methylsulfonimidoyl)phenyl)nicotinamide]",100 to 200 nM,100 to 200 nM
"Cc1c(-c2ccccc2)nnc(N2CCCC(F)(F)CC2)c1C(=O)Nc1cccc([S@](C)(=N)=O)c1 [Example 118, (R)-3-(4,4-difluoroazepan-1-yl)-5-methyl-N-(3-(S-methylsulfonimidoyl)phenyl)-6-phenylpyridazine-4-carboxamide]",50 to 100 nM,50 to 100 nM
"CNCC(=O)N=[S@](C)(=O)c1cccc(NC(=O)c2c(N3CCCC(F)(F)CC3)nnc(-c3cnn(C)c3)c2C)c1 [Example 72, (R)-3-(4,4-difluoroazepan-1-yl)-5-methyl-6-(1-methyl-1H-pyrazol-4-yl)-N-(3-(S-methyl-N-(methylglycyl)sulfonimidoyl)phenyl)pyridazine-4-carboxamide]",50 to 100 nM,50 to 100 nM
"Cc1c(C#CC2CC2)cnc(N2CCCC(F)(F)CC2)c1C(=O)Nc1cccc([S@](C)(=N)=O)c1 [Example 63, (R)-5-(cyclopropylethynyl)-2-(4,4-difluoroazepan-1-yl)-4-methyl-N-(3-(S-methylsulfonimidoyl)phenyl)nicotinamide]",≤ 5 nM,≤ 5 nM
"Cc1c(C(F)(F)F)nnc(N2CCCC(F)(F)CC2)c1C(=O)Nc1cccc([S@@](C)(=O)=NC(=O)[C@@H](C)N)c1 [Example 183, N-(3-((R)-N-(D-alanyl)-S-methylsulfonimidoyl)phenyl)-3-(4,4-difluoroazepan-1-yl)-5-methyl-6-(trifluoromethyl)pyridazine-4-carboxamide]",≤ 5 nM,≤ 5 nM
"CNCC(=O)N=[S@](C)(=O)c1cccc(NC(=O)c2c(N3CCCC(F)(F)CC3)ncc(-c3ccc(Cl)cc3)c2C)c1 [Example 68, (R)-5-(4-chlorophenyl)-2-(4,4-difluoroazepan-1-yl)-4-methyl-N-(3-(S-methyl-N-(methylglycyl)sulfonimidoyl)phenyl)nicotinamide]",≤ 5 nM,≤ 5 nM
"Cc1c(N2CC(F)(F)C2)cnc(N2CCCC(F)(F)CC2)c1C(=O)Nc1cccc([S@](C)(=N)=O)c1 [Example 149, (R)-2-(4,4-difluoroazepan-1-yl)-5-(3,3-difluoroazetidin-1-yl)-4-methyl-N-(3-(S-methylsulfonimidoyl)phenyl)nicotinamide]",5 to 50 nM,5 to 50 nM
"COc1ccc(-c2nnc(N3CCCC(F)(F)CC3)c(C(=O)Nc3cccc([S@](C)(=N)=O)c3)c2C)cc1 (single isomer, unassigned) [Example 138]",100 to 200 nM,> 200 nM
"Cc1c(-c2cnn(C)c2)cnc(N2CCCC(F)(F)CC2)c1C(=O)Nc1ccc(F)c([S@](C)(=N)=O)c1 [Example 214, (R)-2-(4,4-difluoroazepan-1-yl)-N-(4-fluoro-3-(S-methylsulfonimidoyl)phenyl)-4-methyl-5-(1-methyl-1H-pyrazol-4-yl)nicotinamide]",100 to 200 nM,100 to 200 nM
"Cc1c(C(F)(F)F)nnc(N2CCCC(F)(F)CC2)c1C(=O)NC12CC(C(N)=O)(C1)C2 [Example 128, N-(3-carbamoylbicyclo[1.1.1]pentan-1-yl)-3-(4,4-difluoroazepan-1-yl)-5-methyl-6-(trifluoromethyl)pyridazine-4-carboxamide]",> 200 nM,> 200 nM
